For assay [1], the system named is HE cells. Nature of the assay: HE cell subculture with compounds, flow cytometry. Conditions: for HE-derived CD43+GPA+ cell output: day 3 of subculture vs control, UK5099 10 μM, DCA 3 mM. In kind it is cell-based, human. A general note: Flow cytometry measures light scatter and fluorescence of single cells or particles in a stream.
Text: The RB9-CB1 human iPSC line was co-cultured with mouse embryonic fibroblasts (MEFs, Millipore), passaged every six days and processed to form embryoid bodies (EBs) as described previously (Guibentif, C. et al. Cell Reports 19, 10-19 (2017)). The differentiation protocol used in this study was previously described (Ditadi, A. & Sturgeon, C. M. Methods 101, 65-72 (2016)), however, small modifications were made to induce both primitive and definitive hematopoiesis, as indicated below and in FIG. 7, a. Newly-formed EBs were first kept in SFD medium supplemented with 1 ng/ml Activin A (on days 0-2) and 3 μM CHIR99021 (on day 2 only). At day 3, media was switched to “Day 3-SP34” medium supplemented with 1 ng/ml Activin A (on day 3 only) and 3 μM CHIR99021 (on day 3 only) until day 6. On day 6, media was replaced by “Day 6-SP34” medium, until day 8. In some experiments where indicated, to obtain a higher yield of HSC-like cells, EBs were kept until day 10: in this case, EBs were plated onto Matrigel (8 μg/cm^2, Corning)-coated dishes on day 8 and kept until day 10. Media was changed every day, except on days 5 and 7. On day 8 or 10 (as indicated), EBs were singularized with 5-6 rounds of 5-minute incubations with TryPLE Express (Thermo Fisher Scientific). CD34^+ cells were selected using the human CD34 MicroBead kit (Miltenyi Biotec) and stained with CD34-FITC, CD73-PE, VECad-PerCPCy5.5, CD38-PC7, CD184-APC, CD45-AF700, CD43-APCH7, GPA-eF450, CD90-BV605 and the viability marker 7AAD in order to sort HE (CD34^+CD43^−CXCR4^−CD73^−CD90^+VECad^+), EHT (CD34^+CD43^intCXCR4^−CD73^−CD90^+VECad^+) and HSC-like (CD34^+CD43^+CD90^+CD38^−) cells, according to previously described markers (Guibentif, C. et al. Cell Reports 19, 10-19 (2017); Harris, J. M. et al. Blood 121, 2483-2493 (2013) and Schenk, T. et al. Nat Med 18, 605-611 (2012)).
Sorted HE (40,000), EHT (30,000) and HSC-like (5-20,000) cells were plated onto Matrigel (16 μg/cm^2, Corning)-coated 96-well flat bottom plates in HE medium (30) with 1% penicillin-streptomycin and kept in a humidified incubator at 37° C., 5% CO2, 4% O2 overnight. […] Media was changed and drugs were added every 2 days and cells were kept in a humidified incubator at 37° C., 5% CO2, 20% O2 for 6-7 days.
(§1) To measure proliferation, cells were processed with the CellTrace Violet (CTV) kit according to manufacturer's instructions (10-minute incubation) and fluorescence was measured on a BD LSRFortessa. […] Flow cytometry outputs were analyzed on FlowJo Software, with initial gatings on SSC-A/FSC-A, FSC-H/FSC-A, SSC-H/SSC-A and 7-AAD to exclude doublets and dead cells in all experiments.
For a further assay, the system named is HSC-like cells. Put plainly: HSC-like cell subculture with compounds, flow cytometry. Format: cell-based, human. Conditions: day 3, 2-DG 1 mM.
A further assay has as its system EHT cells. Put plainly: EHT cell subculture with compounds, flow cytometry. The conditions noted are these: EHT cells, day 3; 2-DG 1 mM. Format: cell-based, human.
Assay [2] deals with HE cells. Put plainly: Lymphoid differentiation assay on OP9-DL1 stroma. In kind it is cell-based, human. Conditions: 3-day subculture in glutamine-free medium, then 35-day co-culture. How it is done:
Subculture day 3 HE cells cultured in the presence of UK5099 (10 μM), DCA (3 mM), or in glutamine-free medium with DMK (1.75 mM), nucleosides (1×) or NEAAs (1×), as indicated, were collected after a 2-minute incubation at 37° C. with StemPro Accutase Cell Dissociation Reagent and seeded onto 80% confluent OP9-DL1 stroma. Cells were cultured in OP9 medium with SCF (10 ng/ml), FLT3-L (10 ng/ml), IL-2 (5 ng/ml), IL-7 (5 ng/ml, first 15 days only) and IL-15 (10 ng/ml) with passaging onto new OP9-DL1 stroma every week, as described previously (Renoux, V. M. et al. Immunity 43, 394-407 (2015)). At day 35 of co-culture, cells were analyzed on a BD LSRFortessa.

For assay [3], the system named is HE, EHT and HSC-like cells. Conditions: 100 μM FCCP, all cell types. As for the experimental part:
On days 3 and 6 of subculture, cells were collected after a 2-minute incubation at 37° C. with StemPro Accutase Cell Dissociation Reagent and stained with CD34-FITC, CD14-PE, CD33-PC7, CD11b-APC, CD45-AF700, CD43-APCH7, GPA-eF450, CD90-BV605 and the viability marker 7AAD and fluorescence was measured on a BD LSRII. To measure mitochondrial activity, cells were incubated with Tetramethylrhodamine ethyl ester (TMRE, 20 nM) for 30 minutes at 37° C. Negative controls were incubated with 100 μM FCCP for 30 minutes at 37° C., prior to TMRE staining. […] III and MFI levels—MFI FMO were calculated. […] III. To measure proliferation, cells were processed with the CellTrace Violet (CTV) kit according to manufacturer's instructions (10-minute incubation) and fluorescence was measured on a BD LSRFortessa. To measure EdU incorporation, HE cells were assessed on day 1 or 2 of subculture after 24 h EdU pulses, using Click-iT EdU Flow Cytometry Cell Proliferation Assay (Thermo Fisher Scientific, C10424), according to manufacturer's instructions. Flow cytometry outputs were analyzed on FlowJo Software, with initial gatings on SSC-A/FSC-A, FSC-H/FSC-A, SSC-H/SSC-A and 7-AAD to exclude doublets and dead cells in all experiments.

Setting [4] is: day 6 of subculture vs control, BPTES 25 μM, 1-AA 4 mM, TCP 300 nM, C646 10 μM, CP 5 μM.

SMILES strings stand for the structures. Like-named read-outs stand apart in the source and are kept apart here.

Text for EHT cells: The RB9-CB1 human iPSC line was co-cultured with mouse embryonic fibroblasts (MEFs, Millipore), passaged every six days and processed to form embryoid bodies (EBs) as described previously (Guibentif, C. et al. Cell Reports 19, 10-19 (2017)). The differentiation protocol used in this study was previously described (Ditadi, A. & Sturgeon, C. M. Methods 101, 65-72 (2016)), however, small modifications were made to induce both primitive and definitive hematopoiesis, as indicated below and in FIG. 7, a. Newly-formed EBs were first kept in SFD medium supplemented with 1 ng/ml Activin A (on days 0-2) and 3 μM CHIR99021 (on day 2 only). At day 3, media was switched to “Day 3-SP34” medium supplemented with 1 ng/ml Activin A (on day 3 only) and 3 μM CHIR99021 (on day 3 only) until day 6. On day 6, media was replaced by “Day 6-SP34” medium, until day 8. […]
as §1

`N[C@@H]1C[C@H]1c1ccccc1` (racemic) [TCP, Tranylcypromine]: in the assay on HE cells [1], the “CD43+GPA+ cell frequency following UK5099 treatment of HE cells” value was “no increase”, the “HE-derived CD43+CD45+ population” value was “more CD43^+CD45^+ cells” and the “myeloid differentiation (CD43+CD45+CD33+CD11b+)” value is listed as “specifically increased”.

As to `CC(N)[PH](=O)O` (stereo not drawn) [1-AA, 1-aminoethylphosphinic acid], the “HE-derived CD43+GPA+ cell output” value in the assay on HE cells [1] (BPTES 25 μM, 1-AA 4 mM) was “significant increase”. Further, the “levels of total CD43+ cells” value in the assay with HE cells [1] (day 6, treated vs untreated) was “unchanged”. Also, the “HE-derived CD43+CD45+ population” value with HE cells [1] (setting [4]) is recorded as “significant decrease”.

For `O=CC[C@@H](O)[C@H](O)[C@H](O)CO` [2-DG, 2-Deoxy-D-glucose], in the assay on HE cells [1] (day 3, % of the control, 2-DG 1 mM), the “generation of the CD43+GPA+ cell population” value is “less than 50%”. For the same compound, the “CD43+ cell output from HE cells” value with HE cells [1] (day 3 of subculture, 2-DG 1 mM) is on record as “significantly reduced”. In addition, the “generation of the CD43+CD45+ cell population” value in the assay on HE cells [1] (day 6, % of the control, 2-DG 1 mM) is given as “less than 50%”. In addition, the “proliferation rate (CellTrace Violet)” value in the assay on HSC-like cells and in the assay with EHT cells was “significantly reduced” in each case.

Regarding `O=C(Cc1ccccc1)Nc1nnc(CCSCCc2nnc(NC(=O)Cc3ccccc3)s2)s1` [BPTES], the “HE-derived CD43+GPA+ cell output” value in the assay with HE cells [1] (BPTES 25 μM, 1-AA 4 mM) was “sharp decline”. In addition, in the assay with HE cells [1] (setting [4]), the “HE-derived CD43+CD45+ population” value is “sharp decline”.

In the case of `CC1=NN(c2ccc(C(=O)O)cc2)C(=O)/C1=C\c1ccc(-c2cc(C)c(C)cc2[N+](=O)[O-])o1` [C646], the “HE-derived CD43+CD45+ population” value in the assay on HE cells [1] (setting [4]) is recorded as “did not have an effect”.

Regarding `O=C(c1c2ccccc2cc2ccccc12)N1CCC(N2CCC[C@@H](C(=O)N3CCOCC3)C2)CC1` [CP-640186], the “HE-derived CD43+CD45+ population” value with HE cells [1] (setting [4]) is on record as “had the same effect as DCA”.

As for `COC(=O)CCC(=O)C(=O)OC` [DMK, dimethyl-ketoglutarate], the “CD43+GPA+ population” value in the assay on HE cells [1] (HE subcultures without glutamine, days 3 and 6, vs control) was “could not rescue”. In addition, the “proliferation profile of HE cells (CTV)” value in the assay on HE cells [1] (glutamine deprivation, day 3, vs control) is recorded as “could not restore”. Also, the “percentage of CD43+ cells that have lost CD34 expression” value in the assay on HE cells [1] (glutamine-free DMK-treated condition vs control, day 3) is “significantly decreased”. Moreover, the “rescue of CD43+ cell output from HE cells” value with HE cells [1] (glutamine-free medium, day 3, DMK 1.75 mM) is reported as “up to 60%”. For the same compound, in the assay on HE cells [1] (glutamine-free medium, day 6, compared to the control), the “percentages of CD43+CD45+ cells” value is listed as “significant increase”. For the same compound, in the assay on HE cells [2], the “NK cell differentiation (CD45+CD56+)” value is reported as “allowed efficient NK cell differentiation”.

Turning to `N#CC(C#N)=NNc1ccc(OC(F)(F)F)cc1` [FCCP, Carbonyl cyanide 4-(trifluoromethoxy)phenylhydrazone], in assay [3], the TMRE signal entry is reported as “abrogated the TMRE signal”.

For the compound `CC(/C=C/C(=O)NO)=C\[C@@H](C)C(=O)c1ccc(N(C)C)cc1` [TSA, Trichostatin A], the “emergence of CD43+ hematopoietic cells” value in the assay with HE cells [1] (TSA 60 nM, day 3) was “impaired the emergence”.

As for `CC(C)c1c(C(=O)Nc2ccccc2)c(-c2ccccc2)c(-c2ccc(F)cc2)n1CC[C@@H](O)C[C@@H](O)CC(=O)O` [atorvastatin], the “effect of DCA on CD43+CD45+ cells” value in the assay on HE cells [1] (Ato 0.5 μM in combination with DCA 3 mM) is listed as “abrogated the effect of DCA”.

Values taken from patent US20220348876A1, “METABOLISM GUIDES DEFINITIVE LINEAGE SPECIFICATION DURING ENDOTHELIAL TO HEMATOPOIETIC TRANSITION” (Amniotics AB, priority 2019, published 2022).
